Test results taken from patent publication US20060167109A1, “Methods of reducing rhinovirus contagion and related compositions” (priority 2002, published 2006).
Converted amounts (≈) assume the structure as drawn. Read-outs that look alike come from different tables or passages of the source.

Experiments:
Aqueous solubility = type: physicochemical
[1] = Single dose oral pharmacokinetics in fed healthy young subjects; type: in vivo, human; details: for half-life: po, 400 mg
human plasma proteins = assay: Plasma protein binding; type: in vitro ADME
HRV, four serotypes = assay: Virus yield reduction assay, single cycle of growth; type: cell-based, human rhinovirus; details: all four viruses, nontoxic drug concentrations, MOI 1, 12 hours
Method: To assess the inhibition by pleconaril of HRV production from a single cycle of virus replication, virus yield experiments were performed. Cells were infected at a multiplicity of infection (MOI) of 1 infectious virion per cell with virus that had been pre-treated with pleconaril at various drug concentrations. After 12 hours of infection (a single replication cycle), the amount of virus produced was quantified. Pleconaril inhibited virus production in a concentration dependent manner. The yield of progeny virus was reduced by >99% for all four viruses at nontoxic drug concentrations.
Virus was pretreated with various concentrations of pleconaril for 1 hour at 4° C. Confluent, 1-day-old monolayers of Hela (WIS) cells in 6 well plates were infected with virus at a multiplicity of infection (MOI) of approximately 1 plaque-forming unit per cell. After a 1 hour attachment period at 33° C., the inoculum was removed, the monolayers were washed 3 times with Dulbeccos modified phosphate buffer (DPBS)(JRH Biosciences, Lenexa, Kans.) and overlaid with 3 ml of media containing either the appropriate concentration of pleconaril or drug solvent (0.25% DMSO) alone. Incubation was continued for 12 hours at 33° C. and 2.5% CO2. All plates were frozen/thawed 3 times at −80° C. prior to quantification of virus yield in the virus cytopathic effect assay.

[2] = Repeated dose pharmacokinetics, clinical dosing regimen; type: in vivo, human; details: 400 mg TID for 5 days
Method: Plasma accumulation of pleconaril was modest (approximately two fold) when pleconaril was administered according to the clinical dosing regimen (400 mg TID for 5 days). The long terminal half-life had only a modest influence on pleconaril plasma concentration-time profiles for the clinical dosing regimen. The repeated dose pharmacokinetic profile of pleconaril was predictable from single dose data and, thus, the pharmacokinetic profile of pleconaril was time independent (FIG. 2).

[3] = Cell toxicity (MTT) assay of cell growth; details: human, HeLa (WIS) cells; methyltetrazolium dye-based assay of cell growth
Method: To properly evaluate antiviral activity in cell culture assays, the 50% cytotoxic concentration (CC50) of the test compound was first determined so that any inhibitory effects on virus replication could be distinguished from effects due to compound cytotoxicity. The CC50 of pleconaril was determined using a methyltetrazolium dye-based assay of cell growth (Pevear, et al., 1999, Antimicrob. Agents Chemother., 43, 2109-2115).
Pleconaril was solubilized in dimethyl sulfoxide (DMSO). After dilution to the desired drug concentration, the final DMSO concentration in assays was 0.25%.

[4] = test system: reovirus type 1, strain Lang (REOV-1); assay: Virus cytopathic effect assay for other viruses; type: cell-based; details: Mammalian orthoreovirus 1
Method: (§1) The sensitivity of non-picornaviruses to pleconaril was determined in virus cytopathic effect assays similar to the HRV assay for the following viruses: respiratory syncytial virus, strain Long (RSV-A) and herpes simplex virus type II, strain Curtis (HSV-2) on HEp2 cells; influenza virus, strain WSN (FLUA) on MDBK cells; dengue virus type 2, strain New Guinea (DEN-2), and measles virus, strain Edmonston (MeV) on Vero cells; human adenovirus, type 5 (HAdV-5) on HeLa cells (at 33° C.); human coronavirus, strain 229E (Corona) on MRC-5 cells (at 33° C.); and mumps virus, strain Enders (Mumps), reovirus type 1, strain Lang (REOV-1), and parainfluenza virus type 3, strain C243 (HPIV-3) on LLC-MK2d cells. All specificity assays were performed at 37° C. and 5% CO2 except where noted above.

[5] = test system: herpes simplex virus type II, strain Curtis (HSV-2); assay: Virus cytopathic effect assay for other viruses; type: cell-based; details: Human alphaherpesvirus 2, HEp-2
Method: as §1

[6] = test system: dengue virus type 2, strain New Guinea (DEN-2); assay: Virus cytopathic effect assay for other viruses; type: cell-based; details: Vero
Method: as §1

[7] = test system: human coronavirus, strain 229E (Corona); assay: Virus cytopathic effect assay for other viruses; type: cell-based; details: Human coronavirus 229E, MRC5; Corona on MRC-5 cells at 33° C.
Method: as §1

[8] = test system: measles virus, strain Edmonston (MeV); assay: Virus cytopathic effect assay for other viruses; type: cell-based; details: Measles morbillivirus, Vero
Method: as §1

[9] = test system: parainfluenza virus type 3, strain C243 (HPIV-3); assay: Virus cytopathic effect assay for other viruses; type: cell-based; details: Human respirovirus 3
Method: as §1

[10] = test system: mumps virus, strain Enders (Mumps); assay: Virus cytopathic effect assay for other viruses; type: cell-based; details: Mumps orthorubulavirus
Method: as §1

[11] = test system: human adenovirus, type 5 (HAdV-5); assay: Virus cytopathic effect assay for other viruses; type: cell-based; details: Human mastadenovirus C, HeLa
Method: as §1

[12] = test system: influenza virus, strain WSN (FLUA); assay: Virus cytopathic effect assay for other viruses; type: cell-based; details: unidentified influenza virus, MDBK
Method: as §1

[13] = test system: respiratory syncytial virus, strain Long (RSV-A); assay: Virus cytopathic effect assay for other viruses; type: cell-based; details: human respiratory syncytial virus, HEp-2
Method: as §1

[14] = Rat tissue distribution studies; type: in vivo; details: estimated
Method: A 400 mg dose of pleconaril maintains antiviral concentrations at or above the concentration that inhibits 90% of the protoype HRV serotypes (90% Minimal Inhibitory Concentration or mic90) for a significant portion of the dosing interval after the first dose of pleconaril. A nasal tissue to plasma concentration ratio of five was estimated for pleconaril from rat tissue distribution studies.

[15] = human, plasma, fed healthy young subjects (N = 24), single oral dose 400 mg, mean

Cc1cc(CCCOc2c(C)cc(-c3noc(C(F)(F)F)n3)cc2C)on1 [pleconaril, 3-[3,5-dimethyl-4-[3-(3-methyl-5-isoxazolyl)propoxy]phenyl]-5-(trifluoromethyl)-1,2,4-oxadiazole]
solubility (Aqueous solubility): 0.02 µg/mL (≈ 0.0524 µM) | CL/F ([1]; fed healthy young subjects (N = 24), single oral dose 400 mg, mean): 16.8 L/h | alpha half-life ([1]; following oral absorption, alpha disposition phase): ~2.8 h | half-life ([1]; human, plasma, fed healthy young subjects (N = 24), single oral dose 400 mg, mean, read-out: T1/2 (converted)): 7.74 days | half-life ([1]; human, plasma, following oral absorption, alpha disposition phase, read-out: alpha half-life): 0.0833 to 0.125 days | half-life ([1]; human, plasma, following oral absorption, read-out: terminal half-life (converted)): ~7.5 days | AUC(0-inf) [1, 15]: 29200 ng·h/mL | Cmax [1, 15]: 2300 ng/mL | Tmax [1, 15]: 3 h | Vd/F ([1]; human, plasma, fed healthy young subjects (N = 24), single oral dose 400 mg, mean, read-out: Vz/F): 4110 L | protein bound (human plasma proteins): > 99% | reduction of yield of progeny virus (HRV, four serotypes): > 99% | plasma accumulation [2]: approximately two | CC50 [3]: 12.5 to 25 µM | IC50 [4]: > 12.5 µM | IC50 [5]: > 12.5 µM | IC50 [6]: > 12.5 µM | IC50 [7]: > 12.5 µM | IC50 [8]: > 12.5 µM | IC50 [9]: > 12.5 µM | IC50 [10]: > 12.5 µM | IC50 [11]: > 12.5 µM | IC50 [12]: > 12.5 µM | IC50 [13]: > 12.5 µM | nasal tissue to plasma concentration ratio [14]: five
